Source: PMC6225228, “Design, Synthesis and Evaluation of N-pyrazinylbenzamides as Potential Antimycobacterial Agents” (Molecules : A Journal of Synthetic Chemistry and Natural …, 2018)
Like-named read-outs stand apart in the source and are kept apart here.

Legend:
[1] = system: M. kansasii CNCTC My 235/80 (ATCC 12478); test: Antimycobacterial microdilution MABA, M. kansasii; assay type: cell-based, Mycobacterium kansasii; conditions: for MIC: Mycobacterium kansasii, ATCC12478, pH 6.6, read-out: M. kans. ATCC 12478 MIC, Middlebrook 7H9 with OADC, pH 6.6, MABA
[2] = system: Candida glabrata 20/I; test: Antifungal microdilution broth, CG; assay type: cell-based; conditions: Nakaseomyces glabratus, 20/I, read-out: MIC CG
[3] = system: Mycobacterium tuberculosis H37Rv CNCTC My 331/88 (ATCC 27294); test: Antimycobacterial microdilution MABA, M. tuberculosis; assay type: cell-based; conditions: for MIC: Mycobacterium tuberculosis, read-out: Mtb H37Rv ATCC 27294 MIC, Middlebrook 7H9 with OADC growth supplement, pH = 6.6, MABA
[4] = system: Escherichia coli CCM 4517; test: Antibacterial microdilution broth, EC; assay type: cell-based; conditions: Escherichia coli, read-out: MIC EC
[5] = system: Candida tropicalis 156; test: Antifungal microdilution broth, CT; assay type: cell-based; conditions: read-out: MIC CT
[6] = system: M. avium ssp. avium CNCTC My 80/72 (ATCC 15769); test: Antimycobacterial microdilution MABA, M. avium; assay type: cell-based, Mycobacterium avium; conditions: for MIC: Mycobacterium avium, ATCC15769, pH 6.6, read-out: M. avium ATCC 15769 MIC
[7] = system: Pseudomonas aeruginosa CCM 1961; test: Antibacterial microdilution broth, PA; assay type: cell-based; conditions: Pseudomonas aeruginosa, read-out: MIC PA
[8] = system: Mycobacterium smegmatis CCM 4622 (ATCC 607); test: Antimycobacterial microdilution, M. smegmatis; assay type: cell-based; conditions: Mycolicibacterium smegmatis, read-out: M. smeg. ATCC 607 MIC
[9] = system: Candida krusei E28; test: Antifungal microdilution broth, CK; assay type: cell-based; conditions: Pichia kudriavzevii, read-out: MIC CK
[10] = system: Staphylococcus aureus CCM 4516/08; test: Antibacterial microdilution broth, SA; assay type: cell-based
[11] = system: Staphylococcus aureus H 5996/08 methicillin resistant; test: microbe, parasite or virus in culture; assay type: cell-based; conditions: for MIC: Staphylococcus aureus, MRSA, read-out: MIC MRSA
[12] = system: Lichtheimia corymbifera 272; test: Antifungal microdilution broth, LC; assay type: cell-based; conditions: read-out: MIC LC
[13] = system: Staphylococcus epidermidis H 6966/08; test: Antibacterial microdilution broth, SE; assay type: cell-based; conditions: read-out: MIC SE
[14] = system: Candida albicans ATCC 44859; test: Antifungal microdilution broth, CA; assay type: cell-based; conditions: Candida albicans, read-out: MIC CA
[15] = system: Trichophyton interdigitale 445; test: Antifungal microdilution broth, TI; assay type: cell-based; conditions: read-out: MIC TI
[16] = system: Trichosporon asahii 1188; test: Antifungal microdilution broth, TA; assay type: cell-based; conditions: read-out: MIC TA
[17] = system: Aspergillus fumigatus 231; test: Antifungal microdilution broth, AF; assay type: cell-based; conditions: read-out: MIC AF
[18] = system: Enterococcus sp. J 14365/08; test: Antibacterial microdilution broth, EF; assay type: cell-based; conditions: Enterococcus, read-out: MIC EF
[19] = Middlebrook 7H9 with OADC, pH 6.6, MABA
[20] = Staphylococcus aureus, CCM4516, 24 h, read-out: MIC SA, 24 h
[21] = Staphylococcus aureus, CCM4516, 48 h, read-out: MIC SA, 48 h
[22] = Lichtheimia corymbifera, 272, 24 h
[23] = Lichtheimia corymbifera, 272, 48 h
[24] = Staphylococcus epidermidis, H6966/08, 24 h
[25] = Staphylococcus epidermidis, H6966/08, 48 h
[26] = Trichophyton interdigitale, 445, 72 h
[27] = Trichophyton interdigitale, 445, 120 h
[28] = Trichosporon asahii, 1188, 24 h
[29] = Trichosporon asahii, 1188, 48 h
[30] = Aspergillus fumigatus, 231, 24 h
[31] = Aspergillus fumigatus, 231, 48 h
[32] = Staphylococcus aureus, CCM4516, read-out: MIC against S. aureus, time not stated

CC(=O)Oc1cccc(C(=O)Nc2cnc(Cl)cn2)c1 [Compound 2c-Ac]
184.1 to 184.6 °C: melting point
>100 µg/mL: M. kans. ATCC 12478 MIC [1, 19] | Mtb H37Rv ATCC 27294 MIC ([3]; Middlebrook 7H9 with OADC growth supplement, pH = 6.6, MABA) | M. avium ATCC 15769 MIC [6, 19]
> 100 µg/mL: MIC [1] | MIC [3] | MIC [6]
> 125 µM: MIC ([2]; 24 h) | MIC ([2]; 48 h) | MIC ([4]; CCM4517, 24 h) | MIC ([4]; CCM4517, 48 h) | MIC ([5]; Candida tropicalis, 156, 24 h) | MIC ([5]; Candida tropicalis, 156, 48 h) | MIC ([7]; CCM1961, 72 h) | MIC ([7]; CCM1961, 120 h) | MIC ([9]; E28, 24 h) | MIC ([9]; E28, 48 h) | MIC [10, 20] | MIC [10, 21] | MIC ([11]; 24 h) | MIC ([11]; 48 h) | MIC [12, 22] | MIC [12, 23] | MIC [13, 24] | MIC [13, 25] | MIC ([14]; ATCC44859, 24 h) | MIC ([14]; ATCC44859, 48 h) | MIC [15, 26] | MIC [15, 27] | MIC [16, 28] | MIC [16, 29] | MIC [17, 30] | MIC [17, 31] | MIC ([18]; SP.J14365/08, 24 h) | MIC ([18]; SP.J14365/08, 48 h)
>125 µM: MIC ([10]; 24 h, read-out: MIC SA) | MIC ([10]; 48 h, read-out: MIC SA) | MIC MRSA ([11]; 24 h) | MIC MRSA ([11]; 48 h) | MIC ([13]; 24 h) | MIC ([13]; 48 h)
250 µg/mL: MIC [8]

COc1ccccc1C(=O)Nc1cnc(Cl)cn1 [Compound 2e]
141.2 to 142 °C: melting point
≥ 500 µg/mL: MIC [8]
> 125 µM: MIC ([2]; 24 h) | MIC ([2]; 48 h) | MIC ([4]; CCM4517, 24 h) | MIC ([4]; CCM4517, 48 h) | MIC ([5]; Candida tropicalis, 156, 24 h) | MIC ([5]; Candida tropicalis, 156, 48 h) | MIC ([7]; CCM1961, 72 h) | MIC ([7]; CCM1961, 120 h) | MIC ([9]; E28, 24 h) | MIC ([9]; E28, 48 h) | MIC [10, 20] | MIC [10, 21] | MIC [10, 32] | MIC ([11]; 24 h) | MIC ([11]; 48 h) | MIC [12, 22] | MIC [12, 23] | MIC [13, 24] | MIC [13, 25] | MIC ([14]; ATCC44859, 24 h) | MIC ([14]; ATCC44859, 48 h) | MIC [15, 26] | MIC [15, 27] | MIC [16, 28] | MIC [16, 29] | MIC [17, 30] | MIC [17, 31] | MIC ([18]; SP.J14365/08, 24 h) | MIC ([18]; SP.J14365/08, 48 h)
> 100 µg/mL: MIC [1] | MIC [3] | MIC [6]

COc1ccc(C(=O)Nc2cnc(Cl)cn2)cc1 [Compound 2g]
≥ 500 µg/mL: MIC [8]
> 100 µg/mL: MIC [1] | MIC [3] | MIC [6]
> 125 µM: MIC ([2]; 24 h) | MIC ([2]; 48 h) | MIC ([4]; CCM4517, 24 h) | MIC ([4]; CCM4517, 48 h) | MIC ([5]; Candida tropicalis, 156, 24 h) | MIC ([5]; Candida tropicalis, 156, 48 h) | MIC ([7]; CCM1961, 72 h) | MIC ([7]; CCM1961, 120 h) | MIC ([9]; E28, 24 h) | MIC ([9]; E28, 48 h) | MIC [10, 20] | MIC [10, 21] | MIC [10, 32] | MIC ([11]; 24 h) | MIC ([11]; 48 h) | MIC [12, 22] | MIC [12, 23] | MIC [13, 24] | MIC [13, 25] | MIC ([14]; ATCC44859, 24 h) | MIC ([14]; ATCC44859, 48 h) | MIC [15, 26] | MIC [15, 27] | MIC [16, 28] | MIC [16, 29] | MIC [17, 30] | MIC [17, 31] | MIC ([18]; SP.J14365/08, 24 h) | MIC ([18]; SP.J14365/08, 48 h)
177.8 to 179 °C: melting point
